For one data set, the target named is T1, MSMEG_3955 (Mycolicibacterium smegmatis, UniProt A0QZA6).
T1 construct: ~36 kDa subunit, homotrimer ~115 kDa; co-purifies with FMN
Briefly: NADPH oxidation at […] nm. It counts as biochemical. The note with it: 200 uM NADPH, 50 uM FMN, 1.6 uM enzyme, 50 mM Tris-HCl pH 7.6, 25 °C, aerobic.

Data set [1] deals with the molecule itself. The data set can be described thus: native gel or EMSA; NATIVE-PAGE (12% in the methods, 10% in the legend of Fig. 3a) of purified protein loaded without any treatment, 10 ug (Fig. 3a) or 20 ug each of wild type and mutant (Fig. 2a); band at ~115 kDa against ~36 kDa on SDS-PAGE. A general note: A gel shift assay detects complexes by their altered migration in electrophoresis.

T1 sequence (A0QZA6 entry or part of it): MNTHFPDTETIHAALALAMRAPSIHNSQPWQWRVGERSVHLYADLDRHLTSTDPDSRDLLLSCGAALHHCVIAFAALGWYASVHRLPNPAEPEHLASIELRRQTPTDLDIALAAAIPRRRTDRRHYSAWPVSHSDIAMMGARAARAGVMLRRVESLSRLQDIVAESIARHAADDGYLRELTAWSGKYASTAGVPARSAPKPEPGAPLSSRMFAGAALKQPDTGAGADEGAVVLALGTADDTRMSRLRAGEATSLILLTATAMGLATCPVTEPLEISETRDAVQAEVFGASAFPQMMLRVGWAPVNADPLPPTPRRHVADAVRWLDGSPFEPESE

With `NC(=O)C1=CN([C@@H]2O[C@H](COP(=O)(O)OP(=O)(O)OC[C@H]3O[C@@H](n4cnc5c(N)ncnc54)[C@H](OP(=O)(O)O)[C@@H]3O)[C@@H](O)[C@H]2O)C=CC1` [NADPH], the “NADPH oxidation at 340 nm” value on MSMEG_3955 is reported as “showed oxidative NADPH dependent FMN reductase activity as oxidation of NADPH was seen”.

B1: MSMEG_3955 with cysteine 63 replaced by alanine (enzyme, Mycobacterium smegmatis mc2 155, UniProt A0QZA6 1-334, looked up)
chain: MNTHFPDTETIHAALALAMRAPSIHNSQPWQWRVGERSVHLYADLDRHLTSTDPDSRDLLLSAGAALHHCVIAFAALGWYASVHRLPNPAEPEHLASIELRRQTPTDLDIALAAAIPRRRTDRRHYSAWPVSHSDIAMMGARAARAGVMLRRVESLSRLQDIVAESIARHAADDGYLRELTAWSGKYASTAGVPARSAPKPEPGAPLSSRMFAGAALKQPDTGAGADEGAVVLALGTADDTRMSRLRAGEATSLILLTATAMGLATCPVTEPLEISETRDAVQAEVFGASAFPQMMLRVGWAPVNADPLPPTPRRHVADAVRWLDGSPFEPESE
notes: MSMEG_3955, Mycobacterium smegmatis mc2 155, made by site-directed mutagenesis on the pET-28a plasmid of the wild-type gene; cysteine (TGC) at position 63 replaced with alanine (GCC); Same construct as m1 apart from C63A; also called cys-63 mutated native protein MSMEG_3955; mutated protein; source: E. coli BL21 (DE3), pET-28a, purified (Ni-NTA)
Consider B1, for which, in data set [1], the binding result is “binds”.

Values taken from paper PMC8605562, “MSMEG_3955 from Mycobacterium smegmatis is a FMN bounded homotrimeric NAD(P)H:Flavin mononucleotide (FMN) oxidoreductase” (BMC Microbiology, 2021).
